US20240369544A1, “MULTIVALENT GLYCAN SCAFFOLDS AND METHODS OF USE THEREOF” (NovAb, Inc., priority 2021, published 2024)
Where no end group is shown, it is not given here. The star is where a group is joined. αGalNAc = CC(=O)N[C@@H]1[C@@H](O)[C@@H](O)[C@@H](CO)O[C@@H]1*; GalNAcα = O-linked α-N-acetylgalactosamine

Key:
anti-H3 antibody = assay: Dissociation constant of monomer H3:anti-H3 antibody interaction; type: binding
[1] = tested on: O13 YSD cells (yeast cells expressing the lamprey O13 VLRB anti-H3 antibody on their surface); type: binding
Procedure: The O13 YSD cells were then washed 3 times with ice-cold TSM-BSA, then resuspended in 250 μL TMS-BSA to which 1 μL of PI was added to stain live/dead cells. 125 μL of each sample were used for flow cytometry measurements.

[2] = tested on: Vicia Villosa lectin (VVL); assay: Lectin assay of dendrimers on magnetic beads, VVL; type: binding; conditions: dendrimers coupled to streptavidin magnetic beads; lectin at 2 μg/mL pre-complexed with Avidin-HRP
Procedure: (§1) The Avidin-HRP was purchased from SouthemBiotech. […] 3 μL of dendrimer beads were used per assay.

[3] = target: T1, Peanut agglutinin lectin (PNA) (Arachis hypogaea, UniProt P02872); assay: Lectin assay of dendrimers on magnetic beads, PNA; type: binding; conditions: dendrimers coupled to streptavidin magnetic beads; lectin at 2 μg/mL pre-complexed with Avidin-HRP
T1 sequence (P02872 whole entry, looked up): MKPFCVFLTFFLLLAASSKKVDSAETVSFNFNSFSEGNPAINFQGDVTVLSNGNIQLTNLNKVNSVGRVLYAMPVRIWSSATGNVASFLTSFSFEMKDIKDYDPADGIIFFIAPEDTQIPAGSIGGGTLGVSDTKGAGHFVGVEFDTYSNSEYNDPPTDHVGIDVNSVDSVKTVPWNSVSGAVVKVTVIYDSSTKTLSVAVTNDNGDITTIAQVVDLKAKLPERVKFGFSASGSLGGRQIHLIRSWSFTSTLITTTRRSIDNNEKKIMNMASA
Procedure: as §1

[4] = target: T2, Peanut agglutinin lectin (PNA), biotinylated, Vector Laboratories (Peanut, UniProt P02872 24-259, limits assumed, biotinylated (sites not given)); assay: lectin assay: dendrimer on streptavidin magnetic beads, biotinylated lectin pre-complexed with Avidin-HRP, TMB read-out
T2 construct: Lectin, described as specific for galactose as found in T-antigen; It was pre-complexed with Avidin-HRP for the assay
T2 sequence (looked up): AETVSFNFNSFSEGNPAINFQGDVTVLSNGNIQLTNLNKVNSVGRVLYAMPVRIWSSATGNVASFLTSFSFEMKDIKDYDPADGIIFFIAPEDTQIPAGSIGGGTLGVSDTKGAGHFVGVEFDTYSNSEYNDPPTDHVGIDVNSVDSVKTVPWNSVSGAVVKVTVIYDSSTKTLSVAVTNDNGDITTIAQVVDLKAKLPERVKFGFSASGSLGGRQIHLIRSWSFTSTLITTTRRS

`CC(=O)N[C@H]1C(O)O[C@H](CO)[C@@H](O[C@@H]2O[C@H](CO)[C@H](O)[C@H](O)[C@H]2O[C@@H]2O[C@@H](C)[C@@H](O)[C@@H](O)[C@@H]2O)[C@@H]1O` (stereo partly drawn) [monomer H3, Blood group H type 2 trisaccharide] was tested, and the Kd (anti-H3 antibody) was 2000 nM, the “koff of monomer H3:anti-H3 antibody complex” value (anti-H3 antibody; from Kd=koff/kon with kon 10^6 M^−1 s^−1) was 2 s⁻¹ and the “binding by O13 YSD cells (flow cytometry)” value [1] was “not detected”.

With “GP100120-dendrimers: Synthetic fibroin glycopeptide GP100120 (GAT*ES*RGAGAGA-NH2, GalNAc on Ser and Thr, SEQ ID NO:5) conjugated to 8-arm-PEG-NHS compound (GAT(αGalNAc)ES(αGalNAc)RGAGAGA-NH2; also: conjugated to 8-arm-PEG-NHS (dendrimer), site not given here)” the “reactivity to VVL lectin” value [2] was “positive” and the “reactivity to PNA lectin” value [3] was “negative”.

B1: GP100120-dendrimer: synthetic fibroin glycopeptide GP100120 (GAT*ES*RGAGAGA-NH2) conjugated to 8-arm-PEG-NHS (7 arms NHS, 1 arm biotin) (peptide)
peptide: GAT(GalNAcα)ESRGAGAGA-NH2
modifications: not fully specified (residue 5); printed as GAT*ES*RGAGAGA-NH2; also: coupled through a primary amine to NHS arm of 8-arm PEG (7 NHS arms, 1 biotin arm), multivalent, copy number not given here
notes: The dendrimer was captured on streptavidin magnetic beads by its biotin; also called GP100121 glycopeptide dendrimer; GP100121 dendrimer
B1: no binding (tested: 2 µg/mL) [4].
